The record followed here is patent publication EP0569598A1, “BENZOXAZINONE DERIVATIVE” (JAPAN TOBACCO INC., priority 1991, dated 1993).

A value given as a limit tells only on which side of the number the result lay.

The target of assay [1] is T1, human leukocyte elastase (HLE) (Homo sapiens, UniProt P08246).
T1 construct: the mixed solution was subjected to density gradient centrifugation, thereby obtaining neutrophiles; from tissue; host or cells: neutrophils from human vein blood (buffy coat)
T1 sequence (P08246 30-247 limits assumed): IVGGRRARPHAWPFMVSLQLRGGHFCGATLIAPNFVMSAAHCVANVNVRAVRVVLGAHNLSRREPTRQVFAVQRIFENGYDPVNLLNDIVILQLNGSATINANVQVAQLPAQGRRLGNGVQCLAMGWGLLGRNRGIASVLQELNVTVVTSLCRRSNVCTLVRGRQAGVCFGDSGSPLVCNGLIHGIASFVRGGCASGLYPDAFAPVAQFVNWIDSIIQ
In words: HLE inhibitory activity (synthetic substrate, pNA release, absorbance 405 nm). The format is biochemical. To be noted: pH 8.6; HLE 5.63 nM, substrate 0.2625 mM; 37°C; read-out: IC₅₀ value HLE. Here is the method:
(§1) Activities of the Benzoxazine derivatives of the present invention against human leukocyte elastase (HLE), human sputum elastase (HSE), human cathepsin G (HCG), bovine pancreatic α-chmotrypsin (CYT) and bovine pancreatic trypsin (TRY) were measured by the following method.
A buffy coat was obtained by subjecting human vein blood to centrifugation. To the buffy coat was added distilled water to make a hypotonic solution, thereby bursting erythrocytes. To the residual blood cell component was added a 33.4% of Conrey 400 solution/9% Ficoll solution (the ratio of the former solution to the latter solution is 10:24), and the mixed solution was subjected to density gradient centrifugation, thereby obtaining neutrophiles. The neutrophile fraction was washed with Hanks' buffer for three times and then cells were recovered and cryopreserved at -80°C until use. The cryopreserved-cells were thawed with warm water at 37°C and suspended in a 9-fold volume of lysis buffer containing 0.1M Tris-HCl (pH7.5), 1M MgCl₂ and 0.1% Brij 35. The suspended cells are destroyed by means of polotoron with ice-cooling. The cell suspension was subjected to centrifugation at 100,000 x g for 1 hour. After removing precipitates, 2-fold volume of a Tris-HCl buffer containing 5 mM Tris-HCl(pH 7.5), 1M NaCl and 1.1% Brij 35 was added to the supernatant, thereby obtaining a crude solution of an enzyme extract. The crude solution was subjected to aprotinine affinity column and extracted with an elution buffer containing […] of glycine-HCl (pH 3.3), 1M NaCl and 0.1% Brij 35, thereby obtaining an active fraction. The obtained active fraction was further subjected to MONO S-ion-exchange chromatography and eluted with 2M NaCl linear gradient. The obtained fraction was dialyzed against 25 mM Tris-HCl (pH8.6) and lyophilized, thereby obtained an enzyme sample.
(§2) A test compound was dissolved in DMSO (for fluorometry) and prepared various concentration of the solution. To each concentration was added 2-fold volume of 0.2M Tris-HCl (pH8.6), thereby obtaining a test solution. Synthetic substrate (Funakoshi, L-1335) was dissolved in DMSO and 2-volume of 0.2M Tris-HCl (pH8.6) was added thereto, thereby obtaining a substrate solution. The reaction was performed using a microplate having 96 wells (Nunk). Six-time reactions were repeated for each concentration. One handred and forty µl of an enzyme solution containing 0.2M Tris-HCl (pH8.6), 30 µl of a test solution and 30 µl of a substrate solution per well of the microplate were respectively pre-incubated at 37°C for 10 minutes. After completion of the incubation, the enzyme solution was mixed with the test sample and incubated for 10 minutes and then the substrate solution was added to perform an enzyme reaction. The absorbance of released P-nitroanilide (PNA) was measured at the wave length of 405 nm by means of a microplate reader (MTP-100; CORONA), thereby determining the substrate decomposition. The rate of the substrate decomposition was shown as an average value of 6 repeated reactions. The inhibitory concentration of a test compound relative to the amount of the substrate decomposition in the reaction mixture without a test compound was regarded as an IC₅₀ value. The final concentration of HLE and a synthesized substrate in the reaction mixture were 5.63 nM and 0.2625 mM, respectively.

The next assay has as its target T2, human cathepsin G (HCG) (Homo sapiens, UniProt P08311).
T2 construct: purchased Cosmo Bio Inc
T2 sequence (P08311 21-244): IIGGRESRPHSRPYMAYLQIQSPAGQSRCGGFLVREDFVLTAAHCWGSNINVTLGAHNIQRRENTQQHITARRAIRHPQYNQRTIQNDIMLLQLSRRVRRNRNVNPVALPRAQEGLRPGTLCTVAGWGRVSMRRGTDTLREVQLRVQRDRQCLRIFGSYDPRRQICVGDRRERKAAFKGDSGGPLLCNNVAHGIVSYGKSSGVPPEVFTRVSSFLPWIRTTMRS
The assay can be described thus: HCG inhibitory activity (synthetic substrate, pNA release). The format is biochemical. The settings on record: pH 7.5; HCG 50 nM, substrate 0.5 mM; read-out: IC₅₀ value HCG. Here is the method:
as §1, §2
a) Enzyme obtaining route HCG was obtained from Cosmo Bio Inc.
The same method as in the measurement of HLE inhibitory activity was used except that a buffer solution (pH 7.5) was used. The final concentration of HCG and synthetic substrate (Funakoshi, L-1010) in a reaction mixture were 50 nM and 0.5 mM, respectively.

The target in assay [2] is T3, bovine pancreatic α-chmotrypsin (CYT) (Bos taurus, UniProt P00766).
T3 construct: bovine pancreatic α-chmotrypsin (CYT); purchased Sigma Co., Ltd
The assay can be described thus: CYT inhibitory activity (synthetic substrate, pNA release). The format is biochemical. To be noted: pH 8.0; CYT 3.4 nM, substrate 0.273 mM; read-out: IC₅₀ value CYT. Here is the method: as §1, §2
a) Enzyme obtaining route CYT was obtained from Sigma Co., Ltd.
Substantially the same method as used in the measurement of the HLE inhibitory activity was used except that a buffer solution (pH 8.0) was used. The final concentration of CYT and synthetic substrate (Funakoshi, L-1010) in a reaction mixture were 3.4 nM and 0.273 mM, respectively.

Assay [3] deals with neutrophiles from the human peripheral blood. The assay can be described thus: Human neutrophile chemotaxis suppressing activity (fMLP, chemotaxis chamber). The format is cell-based. To be noted: 10-⁷M fMLP, one hour at 37°C; for Chemotaxis: experiment without compound regarded as 100. Here is the method: The neutrophile fraction (60% percoal fraction having neutrophile purity of 90% or more) was taken from the human peripheral blood by means of percoal density gradient centrifugation at 2300 rpm for 20 minutes.
An intercell having a pore diameter of 5 µm, containing 8 x 10⁵ of neutrophiles and the compound of the present invention adjusted in various concentrations was placed in each well of a chemotaxis chamber (KURABO), in which has been added 1300 µl of a medium containing 10-⁷M of formylmethionyl-leucyl-phenylalanine (fMLP), which is a neutrophile chemotaxis factor. After incubating for one hour at 37°C in an incubator containing 5% carbon dioxide, the number of cells migrating from the upper side of the intercell membrane into the lower side of the membrane in the chamber was counted by the following method. That is, the lower side surface of the intercell membrane was washed with PBS for 4 times and fixed with methanol and dyed with hematoxylin-eosin solution. The membrane was removed from the intercell and placed on a slide, dried in air, followed by sealing with Canada balsam. The cell number was microscopically counted in 5 visual fields. Taking average number of the five fields, the average was employed as the number of migrating cells. The value subtracting the migrating cell number in a control experiment containing no fMLP from the cell number in an experiment containing no the compound of the present invention was regarded as 100, the chemotaxis suppressing activity was determined as the following formula: Neutrophilic chemotaxis suppressing activity (%) [formula] = 100 - A/B x 100 [formula] = 100 - (C - D)/(E-D) x 100 [formula] Where: • A: chemotaxis measured in the experiment containing the compound of the present invention; • B: chemotaxis measured in the experiment not containing the compound of the present invention • C: the number of migrating cells measured in the experiment containing both the compound of the present invention and fMLP. • D: the number of migrating cells in the experiment containing neither the compound of the present invention nor fMLP. • E: the number of migrating cells in the experiment containing only fMLP.

Assay [4] addresses T4, human sputum elastase (HSE) (Homo sapiens, UniProt P08246).
T4 construct: human sputum elastase (HSE); purchased Sigma Inc
T4 sequence (P08246 30-267): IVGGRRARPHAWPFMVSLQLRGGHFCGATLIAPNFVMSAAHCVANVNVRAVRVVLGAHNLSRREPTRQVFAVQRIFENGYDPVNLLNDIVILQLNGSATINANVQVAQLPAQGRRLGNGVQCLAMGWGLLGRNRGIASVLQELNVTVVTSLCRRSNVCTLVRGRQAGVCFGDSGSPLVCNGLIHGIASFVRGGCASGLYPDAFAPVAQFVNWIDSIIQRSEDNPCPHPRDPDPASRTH
The assay can be described thus: HSE inhibitory activity (synthetic substrate, pNA release). The format is biochemical. The settings on record: pH 7.0; HSE 10 nM, substrate 0.25 mM; read-out: IC₅₀ value HSE. Here is the method: as §1
as §2, with “The rate of the substrate decomposition was shown as an average value of 6 repeated reactions. The inhibitory concentration of a test compound relative to the amount of the substrate decomposition in the reaction mixture without a test compound was regarded as an IC₅₀ value. The final concentration of HLE and a synthesized substrate in the reaction mixture were 5.63 nM and 0.2625 mM, respectively.” left out

In assay [5] the target is T5, bovine pancreatic trypsin (TRY) (Bos taurus, UniProt P00760).
T5 construct: bovine pancreatic trypsin (TRY); purchased Sigma Inc
T5 sequence (P00760 24-246): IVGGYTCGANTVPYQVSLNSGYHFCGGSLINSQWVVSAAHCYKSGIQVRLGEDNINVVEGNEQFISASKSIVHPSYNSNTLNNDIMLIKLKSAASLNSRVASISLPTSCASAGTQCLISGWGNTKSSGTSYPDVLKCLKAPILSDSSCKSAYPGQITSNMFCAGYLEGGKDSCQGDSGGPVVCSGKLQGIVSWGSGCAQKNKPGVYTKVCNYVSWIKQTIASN
The assay can be described thus: TRY inhibitory activity (synthetic substrate, pNA release). The format is biochemical. To be noted: pH 7.5; TRY 25 nM, substrate Z-Arg-pNA 1.0 mM; read-out: IC₅₀ value TRY. Here is the method:
as §1
as §2, with “The rate of the substrate decomposition was shown as an average value of 6 repeated reactions. The inhibitory concentration of a test compound relative to the amount of the substrate decomposition in the reaction mixture without a test compound was regarded as an IC₅₀ value. The final concentration of HLE and a synthesized substrate in the reaction mixture were 5.63 nM and 0.2625 mM, respectively.” left out

In the case of `Cc1cccc2nc([C@@H](NC(=O)CN(c3ccccc3)c3ccccc3)C(C)C)oc(=O)c12` [Compound 7, 2-{1(S)-[(N,N-diphenyl-glycyl)amino]-2-methylpropyl}-5-methyl-4H-3,1-benzoxazin-4-one], the IC50 in assay [1] came out at 790 nM.

Turning to `Cc1cccc2nc([C@@H](NC(=O)COC(c3ccccc3)c3ccccc3)C(C)C)oc(=O)c12` [Compound 2, 2-[1(S)-[[(diphenylmethoxy)acetyl]amino]-2-methylpropyl]-5-methyl-4H-3,1-benzoxazin-4-one], the IC50 in assay [1] is 220 nM; at human cathepsin G (HCG), greater than 27400 nM; in assay [2], 830 nM. Besides, the values for the Chemotaxis in assay [3] (Concentration 0.125 µM) and in assay [3] (Concentration 1.000 µM) were 70.6 and 57.4, respectively. In assay [3] (Homo sapiens, 1 h, Concentration 0.125 µM), the activity at 0.125 µM was 29.4%. Moreover, the activity at 1 µM in assay [3] (Homo sapiens, 1 h, Concentration 1.000 µM) worked out at 42.6%.

Turning to `Cc1cccc2nc([C@@H](NC(=O)OCC34CC5CC(CC(C5)C3)C4)C(C)C)oc(=O)c12` [Compound 6, 2-[1(S)-[[(1-adamantyl)methoxy-carbonyl]amino]-2-methylpropyl]-5-methyl-4H-3,1-benzoxazin-4-one], the IC50 in assay [1] was 210 nM; in assay [4] it was 260 nM; at human cathepsin G (HCG), greater than 25000 nM; in assay [2] it was 1550 nM; in assay [5] it was greater than 12600 nM.

Regarding `Cc1cccc2nc([C@@H](NC(=O)COC(c3ccccn3)c3ccccn3)C(C)C)oc(=O)c12` [Compound 4], the IC50 in assay [1] came out at 550 nM.

On to `Cc1cccc2nc([C@@H](NC(=O)CCC(c3ccccc3)c3ccccc3)C(C)C)oc(=O)c12` [Compound 8, 2-{1(S)-[(4,4-diphenylbutyryl)amino]-2-methylpropyl}-5-methyl-4H-3,1-benzoxazin-4-one], for which the IC50 in assay [1] came out at 400 nM.

With `Cc1cccc2nc([C@@H](NC(=O)CON=C(c3ccccc3)c3ccccn3)C(C)C)oc(=O)c12` [Compound 9, 5-Methyl-2-[2-methyl-1(S)-[[[[[phenyl(2-pyridyl)methylene]amino]oxy]acetyl]amino]propyl]-4H-3,1-benzoxazin-4-one], the IC50 in assay [1] came to 550 nM.
